Results as given in ChEMBL document CHEMBL4177565, “Arylamidonaphtalene sulfonate compounds as a novel class of heparanase inhibitors” (Bioorg Med Chem Lett, 2017).
Blank lines part the entries; values can stand above or below the molecule they belong to. The source made the active and inactive calls. The rule behind the calls is not given here.

Experiments:
HT-1080 [1] = test: Growth inhibition of human HT1080 cells at 2.5 uM after 72 hrs by SRB assay relative to control; type: functional; conditions: HT-1080, 72 h, read-out: GI
U-87 MG = test: Growth inhibition of human U87MG cells at 2.5 uM after 72 hrs by SRB assay relative to control; type: functional, U-87MG ATCC; conditions: read-out: GI
U2OS = test: Growth inhibition of human U2OS cells at 2.5 uM after 72 hrs by SRB assay relative to control; type: functional; conditions: read-out: GI
Heparanase = target: T1, Heparanase (Mus musculus, UniProt Q6YGZ1); test: Inhibition of mouse B16-BL6 cells derived heparanase using [3H]HS as substrate after 6 hrs by size exclusion chromatography based liquid scintillation counting method
T1 sequence (Q6YGZ1 whole entry): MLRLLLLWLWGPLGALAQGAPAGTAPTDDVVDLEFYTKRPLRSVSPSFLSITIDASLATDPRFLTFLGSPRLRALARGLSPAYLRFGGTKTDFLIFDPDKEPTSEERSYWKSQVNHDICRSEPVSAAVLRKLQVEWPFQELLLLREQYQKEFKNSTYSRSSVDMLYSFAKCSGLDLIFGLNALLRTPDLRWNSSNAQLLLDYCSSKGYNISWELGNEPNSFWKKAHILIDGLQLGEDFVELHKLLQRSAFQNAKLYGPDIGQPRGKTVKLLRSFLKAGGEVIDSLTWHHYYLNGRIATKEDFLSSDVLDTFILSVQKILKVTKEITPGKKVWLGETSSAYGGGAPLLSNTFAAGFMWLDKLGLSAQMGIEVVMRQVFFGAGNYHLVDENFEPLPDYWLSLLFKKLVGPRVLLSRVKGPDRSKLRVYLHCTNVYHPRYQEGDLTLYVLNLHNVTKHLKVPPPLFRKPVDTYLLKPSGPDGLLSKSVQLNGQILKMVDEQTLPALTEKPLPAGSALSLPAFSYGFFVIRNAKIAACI

HT-1080 [2] = test: Effect on growth factor mRNA expression in human HT1080 cells assessed as FGF1 mRNA level at 2.5 uM after 24 hrs by qPCR method (reference value: 100%); type: functional
HT-1080 [3] = test: Effect on growth factor mRNA expression in human HT1080 cells assessed as FGF2 mRNA level at 2.5 uM after 24 hrs by qPCR method (reference value: 100%); type: functional
HT-1080 [4] = test: Effect on growth factor mRNA expression in human HT1080 cells assessed as VEGF mRNA level at 2.5 uM after 24 hrs by qPCR method (reference value: 100%); type: functional
HT-1080 [5] = test: Effect on MMP9 mRNA expression in human HT1080 cells assessed as MMP9 mRNA level at 2.5 uM after 24 hrs by qPCR method (reference value: 100%); type: functional
HT-1080 [6] = test: Effect on HPSE1 mRNA expression in human HT1080 cells assessed as HPSE1 mRNA level at 2.5 uM after 24 hrs by qPCR method (reference value: 100%); type: functional
HT-1080 [7] = test: Anti-invasive activity against human HT1080 cells at 2.5 uM incubated for 24 hrs measured for 24 hrs by crystal violet staining based inverted microscopic method relative to control; type: functional
HT-1080 [8] = conditions: Homo sapiens, 2.5 uM
Description: Inhibition of cell adhesion in human HT1080 cells at 2.5 uM incubated for 18 to 20 hrs by crystal violet staining based assay

SMILES: O=C(Nc1cccc(C(=O)Nc2cc(C(=O)Nc3ccc4c(S(=O)(=O)O)cccc4c3S(=O)(=O)O)n(C3CC3)c2)c1)Nc1cccc(C(=O)Nc2cc(C(=O)Nc3ccc4c(S(=O)(=O)O)cccc4c3S(=O)(=O)O)n(C3CC3)c2)c1
inhibition of growth at 2.5 µM (HT-1080 [1]): < 50%
inhibition of growth at 2.5 µM (U-87 MG): < 50%
inhibition of growth at 2.5 µM (U2OS): < 50%

SMILES: Cc1c(NC(=O)c2cccc(NC(=O)Nc3cccc(C(=O)Nc4cc(C(=O)Nc5ccc6c(S(=O)(=O)O)cccc6c5S(=O)(=O)O)n(C)c4C)c3)c2)cc(C(=O)Nc2ccc3c(S(=O)(=O)O)cccc3c2S(=O)(=O)O)n1C
inhibition of growth at 2.5 µM (HT-1080 [1]): < 50%
inhibition of growth at 2.5 µM (U-87 MG): < 50%
inhibition of growth at 2.5 µM (U2OS): < 50%

Ki (Heparanase): 48 µM
SMILES: Cc1ccc(C(=O)Nc2ccc(S(=O)(=O)O)c3cc(S(=O)(=O)O)cc(S(=O)(=O)O)c23)cc1NC(=O)c1cccc(NC(=O)Nc2cccc(C(=O)Nc3cc(C(=O)Nc4ccc(S(=O)(=O)O)c5cc(S(=O)(=O)O)cc(S(=O)(=O)O)c45)ccc3C)c2)c1 [SURAMIN]

SMILES: Cn1cc(NC(=O)Nc2cc(C(=O)Nc3cc(C(=O)Nc4ccc5c(S(=O)(=O)[O-])cccc5c4S(=O)(=O)[O-])n(C)c3)n(C)c2)cc1C(=O)Nc1cc(C(=O)Nc2ccc3c(S(=O)(=O)[O-])cccc3c2S(=O)(=O)[O-])n(C)c1.[Na+].[Na+].[Na+].[Na+]
Activity (HT-1080 [2]): 44%
Activity (HT-1080 [3]): 86%
Activity (HT-1080 [4]): 100%
Activity (HT-1080 [5]): 100%
Activity (HT-1080 [6]): 1%

SMILES: Cc1ccc(C(=O)Nc2ccc3c(S(=O)(=O)O)cccc3c2S(=O)(=O)O)cc1NC(=O)c1cc(NC(=O)Nc2cc(C(=O)Nc3cc(C(=O)Nc4ccc5c(S(=O)(=O)O)cccc5c4S(=O)(=O)O)ccc3C)n(C)c2)cn1C
inhibition of growth at 2.5 µM (HT-1080 [1]): < 50%
inhibition of growth at 2.5 µM (U-87 MG): < 50%
inhibition of growth at 2.5 µM (U2OS): < 50%

SMILES: Cn1cc(NC(=O)Nc2cc(C(=O)Nc3cccc(C(=O)Nc4ccc5c(S(=O)(=O)[O-])cccc5c4S(=O)(=O)[O-])c3)n(C)c2)cc1C(=O)Nc1cccc(C(=O)Nc2ccc3c(S(=O)(=O)[O-])cccc3c2S(=O)(=O)[O-])c1.[Na+].[Na+].[Na+].[Na+]
inhibition of growth at 2.5 µM (HT-1080 [1]): < 50%
inhibition of growth at 2.5 µM (U-87 MG): < 50%
inhibition of growth at 2.5 µM (U2OS): < 50%
Activity (HT-1080 [7]): >90%
Activity (HT-1080 [2]): 87%
Activity (HT-1080 [3]): 98%
Activity (HT-1080 [4]): 85%
Activity (HT-1080 [5]): 80%
Activity (HT-1080 [6]): 4%
inhibition (HT-1080 [8]): Active

SMILES: Cn1cc(NC(=O)c2cccc(NC(=O)Nc3cccc(C(=O)Nc4cc(C(=O)Nc5ccc6c(S(=O)(=O)O)cccc6c5S(=O)(=O)O)n(C)c4)c3)c2)cc1C(=O)Nc1ccc2c(S(=O)(=O)O)cccc2c1S(=O)(=O)O
inhibition of growth at 2.5 µM (HT-1080 [1]): < 50%
inhibition of growth at 2.5 µM (U-87 MG): < 50%
inhibition of growth at 2.5 µM (U2OS): < 50%

SMILES: Cn1cc(NC(=O)c2cc(NC(=O)Nc3cc(C(=O)Nc4cc(C(=O)Nc5ccc6c(S(=O)(=O)O)cccc6c5S(=O)(=O)O)n(C)c4)cc(C(F)(F)F)c3)cc(C(F)(F)F)c2)cc1C(=O)Nc1ccc2c(S(=O)(=O)O)cccc2c1S(=O)(=O)O
inhibition of growth at 2.5 µM (HT-1080 [1]): < 50%
inhibition of growth at 2.5 µM (U-87 MG): < 50%
inhibition of growth at 2.5 µM (U2OS): < 50%

SMILES: Cn1cc(NC(=O)c2ccc(F)c(NC(=O)Nc3cc(C(=O)Nc4cc(C(=O)Nc5ccc6c(S(=O)(=O)O)cccc6c5S(=O)(=O)O)n(C)c4)ccc3F)c2)cc1C(=O)Nc1ccc2c(S(=O)(=O)O)cccc2c1S(=O)(=O)O
inhibition of growth at 2.5 µM (HT-1080 [1]): < 50%
inhibition of growth at 2.5 µM (U-87 MG): < 50%
inhibition of growth at 2.5 µM (U2OS): < 50%
